Measurements as given in PubChem BioAssay (NCI).
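Dose response: 5 concentrations. Exposure: 48 h. Format: 96-well plates. Endpoint: linear interpolation; highest concentration if not reached. Definition used: TGI = concentration required for complete inhibition of growth.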

Columns and labels:
Assay in all cases: growth of human tumour cells (NCI), 48 h
786-0 renal = test system: 786-0 renal
A498 renal = test system: A498 renal
A549 NSCLC = test system: A549 NSCLC
ACHN renal = test system: ACHN renal
BT-549 breast = test system: BT-549 breast
CAKI-1 renal = test system: CAKI-1 renal
CCRF-CEM leukemia = test system: CCRF-CEM leukemia
COLO 205 colon = test system: COLO 205 colon
DU-145 prostate = test system: DU-145 prostate
EKVX NSCLC = test system: EKVX NSCLC
HCC-2998 colon = test system: HCC-2998 colon
HCT-116 colon = test system: HCT-116 colon
HCT-15 colon = test system: HCT-15 colon
HOP-62 NSCLC = test system: HOP-62 NSCLC
HOP-92 NSCLC = test system: HOP-92 NSCLC
HS 578T breast = test system: HS 578T breast
HT29 colon = test system: HT29 colon
IGROV1 ovarian = test system: IGROV1 ovarian
K-562 leukemia = test system: K-562 leukemia
KM12 colon = test system: KM12 colon
LOX IMVI melanoma = test system: LOX IMVI melanoma
M14 melanoma = test system: M14 melanoma
MALME-3M melanoma = test system: MALME-3M melanoma
MCF7 breast = test system: MCF7 breast
MDA-MB-231 breast = test system: MDA-MB-231 breast
MDA-MB-435 = test system: MDA-MB-435
MDA-N = test system: MDA-N
MOLT-4 leukemia = test system: MOLT-4 leukemia
NCI-H226 lung = test system: NCI-H226 lung
NCI-H23 lung = test system: NCI-H23 lung
NCI-H460 lung = test system: NCI-H460 lung
NCI-H522 lung = test system: NCI-H522 lung
NCI/ADR-RES ovarian = test system: NCI/ADR-RES ovarian
OVCAR-3 ovarian = test system: OVCAR-3 ovarian
OVCAR-4 ovarian = test system: OVCAR-4 ovarian
OVCAR-5 ovarian = test system: OVCAR-5 ovarian
OVCAR-8 ovarian = test system: OVCAR-8 ovarian
PC-3 prostate = test system: PC-3 prostate
RPMI-8226 leukemia = test system: RPMI-8226 leukemia
RXF 393 renal = test system: RXF 393 renal
SF-268 CNS = test system: SF-268 CNS
SF-295 CNS = test system: SF-295 CNS
SF-539 CNS = test system: SF-539 CNS
SK-MEL-2 melanoma = test system: SK-MEL-2 melanoma
SK-MEL-28 melanoma = test system: SK-MEL-28 melanoma
SK-MEL-5 melanoma = test system: SK-MEL-5 melanoma
SK-OV-3 ovarian = test system: SK-OV-3 ovarian
SN12C renal = test system: SN12C renal
SNB-19 CNS = test system: SNB-19 CNS
SNB-75 CNS = test system: SNB-75 CNS
SR leukemia = test system: SR leukemia
SW-620 colon = test system: SW-620 colon
T-47D breast = test system: T-47D breast
TK-10 renal = test system: TK-10 renal
U251 CNS = test system: U251 CNS
UACC-257 melanoma = test system: UACC-257 melanoma
UACC-62 melanoma = test system: UACC-62 melanoma
UO-31 renal = test system: UO-31 renal
HL-60(TB) leukemia = test system: HL-60(TB) leukemia

Measured: TGI

CC(C)CCNC(=O)c1ccc(CNC(=O)/C=C/c2ccc3c(c2)-c2ccccc2C3)cc1
78.9 µM: CAKI-1 renal
44.8 µM: HOP-62 NSCLC
81.1 µM: 786-0 renal
80.1 µM: OVCAR-4 ovarian
82.6 µM: RXF 393 renal
53.3 µM: SNB-75 CNS
71.4 µM: OVCAR-8 ovarian
45.8 µM: MALME-3M melanoma
65.2 µM: U251 CNS
not listed: HL-60(TB) leukemia
> 100 µM: all other assays above

Cc1ccc(Nc2nc3ccccc3nc2NS(=O)(=O)c2ccc(N)cc2)cc1
81.9 µM: SK-MEL-2 melanoma
16.2 µM: NCI-H23 lung
71 µM: OVCAR-4 ovarian
6.55 µM: HCC-2998 colon
65.5 µM: UO-31 renal
94.3 µM: KM12 colon
70.7 µM: CCRF-CEM leukemia
81.8 µM: MOLT-4 leukemia
80.5 µM: HL-60(TB) leukemia
not listed: A498 renal
> 100 µM: all other assays above
